Results as given in patent US4055640A, “Compositions and methods for controlling the growth of bacteria, fungi and algae using certain derivatives of N-(2,2-dichlorovinyl)salicylamides” (Nippon Kayaku Co., Ltd., priority 1975, dated 1977).

Key:
[1] = test system: seedling blight of rice plant (pathogen Fusarium sp. and Rhizoctonia sp.); assay: Exterminating test on seedling blight of rice plant (Experimental Example 1); type: in vivo; conditions: soil, 408 h, 0.25g/box a.i., 5% dust mixed with soil; read-out: Percentage of healthy seedlings
Description: Exterminating test on seedling blight of rice plant Nursery boxes (60 × 30 × 3 cm) were filled with soil which were contaminated with pathogen (Fusarium sp. and Rhizoctonia sp.) The dust in which the present compound was contained in a ratio of 5% by weight was added in the box in a ratio of 5 grams per box and mixed well with soil. Thereafter, seeds of rice plant (variety: Nihonbare) were sowed in drills at a rate of 0.3 liter per box and grown up in a lighting chamber at 17° C. After 7 days from the sowing, the boxes were carried out in the field. Furthermore, 10 days thereafter the observations were made. Four percent (4%) dust of 3-hydroxy-5-methyl isoxazol (hereinafter referred to as hydroxyisoxazol) on the market was used as a control and tested by the same method. The test results are shown in Table 2 with a "percentage of healthy seedlings". The percentage of healthy seedlings was calculated as follows: […]

[2] = test system: Aspergillus niger, Penicillium citrinum, Cladosporium harbarum and chaetomium globosum; assay: Degree of growth inhibition of fungi on treated beach plates (Example 25); type: cell-based; set-up: scale not given here; conditions: numerical rating, 2 weeks
Description: The emulsifiable concentrates which were prepared by Example 20 were diluted with water 400 times and 800 times to form emulsions.
The square plates of beach of which a side was 5 cm long and thickness was 5 mm were dipped into the emulsion for 2 minutes and dried for 24 hours at room temperature.
The square plates were placed on the surface of agar plates. The suspensions which contained spores of Aspergillus niger, Penicillium citrinum, Cladosporium harbarum and chaetomium globosum were respectively sprayed on the agar plates and the square plates.
The test fungi were cultivated in the incubator at the humidity of 95% and the temperature of 28° C for 2 weeks. The degree of growth inhibition is defined in terms of the following numerical ratings.

[3] = test system: Rhizoctonia solani (damping-off of cucumber); assay: Exterminating test on damping-off of cucumber (Experimental Example 3); type: in vivo; conditions: Rhizoctonia solani, soil, 240 h, 1,000 ppm, soil drench 50 ml per pot, 10 days; read-out: Percentage of healthy seedlings
Description: Exterminating test on damping-off of cucumber
The pots (diameter, 12 cm) were filled with field soil and then soil infected by adding Rhizoctonia solani in an amount of 5 grams per pot uniformly into the pots. Thereafter, 10 seeds of cucumber (variety: Azumamidori) were sown in each pot.
Eighty percent (80%) wettable powder of the present invention was diluted with water to obtain a suspension and each pot was drenched with the suspension in an amount of 50 milliliters. Then, the pots were transferred to the greenhouse. Fifty percent (50%) wettable powder of pentachloronitro benzene (hereinafter referred to as PCNB) on the market was used as a control and tested by the same method. After 10 days of the inoculation, degrees attacked by the pathogen were observed and a "Percentage of healthy seedlings" was calculated. The "Percentage of healthy seedlings" was calculated as follows: [formula]

[4] = test system: Xanthomonas citri (citrus canker); assay: Exterminating test on citrus canker (Experimental Example 6); type: in vivo; conditions: Xanthomonas citri, 336 h, read-out: Effect Index, 1,000 ppm, 2 weeks after inoculation
Description: (§1) Exterminating test on citrus canker. 4-year-old summer orange seedlings, planted in unglazed pots having a diameter of 20 cm, were employed in this test. Eighty percent (80%) wettable powder of the present invention was diluted with water, and sprayed over the seedlings in an amount of 50 ml per pot. The leaves of the seedlings were inoculated Xanthomonas citri by means of a needle. After the inoculation, the seedlings were maintained in a moist chamber at 25° C for 24 hours. Then the pots were transferred into the greenhouse. Streptomycin 20% wettable powder was used as a control, and tested by the same method. After 2 weeks after the inoculation, degrees of disease attack were observed, and an "Effect Index" was calculated as follows: [formula]

[5] = test system: Fusarium wilt of cucumber; assay: Exterminating test on Fusarium wilt of cucumber (Experimental Example 4); type: in vivo, Fusarium oxysporum f, cucumerinum; conditions: Fusarium, soil, 336 h, 500 ppm, soil drench 100 ml per pot, two weeks; read-out: Percentage of healthy seedlings
Description: Exterminating test on Fusarium wilt of cucumber Twenty (20) grams of infected soil was added uniformly into each pot which was filled with steam sterilized field soil, then 18 seeds of cucumber (variety; Tokiwazibai) were sowed in each pot. Eighty percent (80%) wettable powder of the present invention was diluted with water to obtain a suspension, and each pot was drenched with the suspension in an amount of 100 ml. Fifty percent (50%) wettable powder of methyl-1-(butylcarbamoyl) 2-benzimidazol carbamate (hereinafter referred to as Benlate) on the market was used as a control and tested by the same method. After two weeks of planting, degrees attacked by the pathogen was observed and a "percentage of healthy seedlings" was calculated as follows: [formula]

summer orange seedlings = assay: Phytotoxicity on summer orange seedlings (Experimental Example 6); type: in vivo; conditions: 1,000 ppm
Description: as §1

green algae = assay: Degree of propagation on slime test boards (Example 27); type: cell-based; conditions: same method, shaking culture for 2 days
Description: (§2) Zero point zero two (0.02) part of active compounds in the form of 10% water soluble concentrate which was prepared by Example 23 was added into 100 parts of Waxman's liquid medium. Peices of Wood iron (hereafter referred to as the slime test boards) were soaked into the Waxman's liquid medium. The bacteria which were gathered from circular water system were inoculated upon the Waxman's liquid medium and incubated at 27°-34° C by shaking culture for 2 days. The degree of propagation of the bacteria on the slime test boards was examined.
(§3) Thegrowth-inhibiting activity of active compounds against the fungi and the green algae was also examined by the same method as mentioned above.
(§4) The degree of propagation of the bacteria, fungi or green algae on the test boards is defined in terms of the following symbols.

fungi = assay: as above; type: cell-based; conditions: same method, shaking culture for 2 days
Description: as §2, §3, §4

[6] = test system: bacteria gathered from circular water system; assay: as above; type: cell-based; conditions: shaking culture for 2 days
Description: as §2, §3, §4

Staphylococcus oureus = assay: Region of growth-inhibition around treated cotton cloth (Example 26); type: cell-based; conditions: emulsifiable concentrate diluted 100 times
Description: (§5) The emulsifiable concentrates which were prepared by Example 20 were diluted with water 100 times to form an emulsion. A cloth of cotton was soaked into each emulsion for 2 minutes. The clothes were dried at room temperature and cut into a square of which a side was 1 cm long. Each kind of test bacteria and fungi was inoculated, separately, on plates of potato-agar and one square cloth placed on each of such plates. Test bacteria and fungi were cultivated at 28° C for 4 days. The width of the region of growth-inhibition which was formed a circumference of the cloth was measured.

Penicillium Citrinum = assay: as above; type: cell-based; conditions: emulsifiable concentrate diluted 100 times
Description: as §5

Bacillus subtilis = assay: as above; type: cell-based; conditions: emulsifiable concentrate diluted 100 times
Description: as §5

Aspergillus niger = assay: as above; type: cell-based; conditions: emulsifiable concentrate diluted 100 times
Description: as §5

[7] = test system: botrytis cinerea (gray mold); assay: Exterminating test on gray mold of tomato (Experimental Example 5); type: in vivo; set-up: scale not given here; conditions: 1,000 ppm, 48 hours after inoculation, kidney bean leaves
Description: Exterminating test on gray mold of tomato The seedlings of kidney beans (variety: Orient) of 5-6 leaves stage were employed in this test. Eighty percent (80%) wettable powder of the present invention was diluted with water and sprayed over the seedlings in an amount of 10 ml per pot. The leaves were cut from the plant at 24 hours after spraying, and placed in the petri dishes (12 cm in diameter). Thereafter disks (5 mm in diameter) were cut with a cork borer from potato dextrose agar on which the pathogen (botrytis cinerea) was cultured. The disks were placed on the leaves. The dishes were placed in such a moistural condition as to cause the pathogen to propagate. Thiophanate methyl 70% wettable powder on the market was used as a control and tested by the same method. After forty eight (48) hours after inoculation, diameters of the lesions were observed, and an "Effect Index" was calculated as follows; [formula]

[8] = test system: seedlings of kidney beans (variety: Orient); assay: Phytotoxicity on kidney beans (Experimental Example 5); type: in vivo; conditions: 1,000 ppm
[9] = test system: Cladosporium cucumerinum (cucumber scab); assay: Exterminating test on cucumber scab (Experimental Example 2); type: in vivo; set-up: scale not given here; conditions: 500 ppm, 5 days after inoculation
Description: Exterminating test on cucumber scab
(§6) The cucumber seeds (variety: Sagamihanjiro) were sown in pots (diameter 18 cm). Eighty percent (80%) wettable powder (contents of active compound: 80%) of the present invention was diluted with water to obtain a suspension. The suspension was sprayed over the cucumber seedlings of the stage of 3-4 leaves in an amount of 20 ml per pot. After 24 hours, these pots were inoculated by means of spray of spore suspension of Cladosporium cucumerinum. The thus-inoculated seedlings were placed in a moist chamber at 20° C for 24 hours. The pots were continuously kept in a greenhouse at 20° C. The following wettable powders on the market were used as controls.
70% wettable powder of 1,2-bis (3-methoxy carbonyl-2-thioureid) benzene (hereinafter referred to as "thiophanate methyl") on the market.
75% wettable powder of ethylene bis (dithiocarbamic acid) manganese (hereinafter referred to as "maneb") on the market. After 5 days of the inoculation, degrees attached by the pathogen were observed and the results were shown in Table 3 with an "Infected Index". The "Infected Index" was calculated as follows: [formula] A : Number of leaves which were killed by hard attack B : Number of leaves severely attacked
C : number of leaves slightly attacked
D : number of healthy leaves

[10] = test system: cucumber seedlings (variety: Sagamihanjiro); assay: Phytotoxicity on cucumber seedlings (Experimental Example 2); type: in vivo; conditions: 500 ppm
Description: as §6

Row | SMILES | Percentage of healthy seedlings at 0.25 g/box [1] | Degree of growth inhibition ([2]; 0.0125 %) | Degree of growth inhibition ([2]; 0.025 %) | pest or weed control at 1000 ppm [3] | pest or weed control at 1000 ppm [4] | pest or weed control at 500 ppm [5] | Phytotoxicity (summer orange seedlings) | Degree of propagation (green algae) | Degree of propagation (fungi) | Degree of propagation [6] | width of the region of growth-inhibition (Staphylococcus oureus) | width of the region of growth-inhibition (Penicillium Citrinum) | width of the region of growth-inhibition (Bacillus subtilis) | width of the region of growth-inhibition (Aspergillus niger) | Effect Index [7] | Phytotoxicity [8] | Infected Index [9] | Phytotoxicity [10]
1 | O=C(CCl)Oc1ccccc1C(=O)NC=C(Cl)Cl [compound 13] | 62% | 2 | 3 | 100% | 67.3% | 70.5% | Nil | - | - | - | 6 mm | 7 mm | 7 mm | 6 mm |  |  |  | 
2 | CCCC(=O)Oc1ccccc1C(=O)NC=C(Cl)Cl [compound 10] | 72.1% | 3 | 3 | 100% |  | 70% |  | - | - | + (the area of propagation is 1-25% on the slime test boards.) |  |  |  |  | 88 | Nil |  | 
3 | O=C(NC=C(Cl)Cl)c1cc(Cl)ccc1O [Compound No. 2, N-(2',2'-dichlorovinyl)-5-chlorosalicylamide] | 72.4% | 2 | 3 |  |  |  | Nil | - | - | - | 10 mm | 5 mm | 9 mm | 5 mm | 79 | Nil | 11.0 | Nil
4 | CCOC(=O)Oc1ccccc1C(=O)NC=C(Cl)Cl [compound 17] | 68.3% | 2 | 3 | 85% | 68.3% | 47.5% | Nil | + (the area of propagation is 1-25% on the slime test boards.) |  | - | 7 mm | 6 mm | 8 mm | 5 mm |  |  |  | 
5 | CCC(=O)Oc1ccccc1C(=O)NC=C(Cl)Cl [Compound No. 9] | 69.8% | 3 | 3 | 90% |  | 75% |  | - | - | - | 7 mm | 6 mm | 9 mm | 6 mm |  |  |  | 
6 | CC(C)C(=O)Oc1ccccc1C(=O)NC=C(Cl)Cl [compound 11] | 68.7% |  |  | 100% |  | 65.5% |  |  |  |  |  |  |  |  | 81 | Nil | 10.1 | Nil
7 | CC(=O)Oc1ccc(Cl)cc1C(=O)NC=C(Cl)Cl [Compound No. 7, O-acetyl-N-(2',2'-dichlorovinyl)-5-chlorosalicylamide] | 70.2% | 5 | 5 |  |  | 76.5% |  | - | - | - | 11 mm | 10 mm | 12 mm | 10 mm |  |  |  | 
